The values below come from US12324827B2, “Combination therapy for the treatment of migraines” (The University of Chicago, priority 2019, dated 2025).

The test system of series [1] is cortical spreading depression. Kind of series: Number of cortical spreading depressions evoked over 90 minutes. Type of series: in vivo, rat. The conditions noted are these: CSD stimulus every nine minutes for 90 minutes, an hour after intravenous injection, n=3. The text has this:
Animals are stabilized for an hour under anesthesia (1.5% isoflurane in oxygen) after head sutures are removed, eyes coated with Artificial Tears and animals made ready for initiation and recording of CSD under deeper (5%) isoflurane in oxygen, which is then lowered back to 1.5% isoflurane in oxygen during CSD recordings. CSD is initiated as described above one to four hours after antibody infusion. All animals receive nine KCl injections. Then, isoflurane is raised to 5% and animals anesthetized with intraperitoneal ketamine and Xylazine followed quickly by euthanasia via intra-cardiac perfusion with 0.1 mL heparin (1,000 units/ml), then 250 ml of normal saline and finally 250 ml 4% paraformaldehyde in 0.2 M phosphate buffer. Brains plus upper cervical cord and trigeminal ganglia are harvested for measurement of c-fos immunostaining in the trigeminocervical complex and CGRP and oxidative stress (malondialdehyde) levels in the trigeminal ganglion ipsilateral to CSD. Animal groups and endpoints are defined below.
First, the inventors confirmed that there was no significant difference in the number of evoked CSDs between groups (FIG. 16). Sham nasal delivery was, as reported (i.e., 50 μl succinate buffer delivered as 5 μl aliquots to alternating nostrils every two minutes) while under isoflurane inhalational anesthesia (Won and Kraig, 2020). […]

The subject of another series is trigeminal ganglion CGRP. Kind of series: CGRP immunostaining of trigeminal ganglion after recurrent spreading depression. As to conditions: n=5/group. Format: in vivo, rat. As to the method: (§1) N2B delivery of 150 μg human recombinant IGF-1 (#191-G1; R&D Systems, Minneapolis, MN) in 50 μL sodium succinate buffer followed the previously described approach (21,51) that was based on the techniques of Liu and coworkers (24) in the recording laboratory under isoflurane anesthesia with spontaneous ventilation.
(§2) Induction of recurrent SD followed previously published aseptic techniques from the inventors' laboratory (8, 13, 21, 25, 26, 51) (FIG. 4). […]
(§3) Imaging was performed using a Photometrics self-calibrating digital camera QuantEM-512SC camera (500×500 pixels; Photometrics, Tucson, AZ) run on MetaMorph software (v. 7.0.4; Molecular Devices, Sunnyvale, CA) under blinded conditions (as previously described (13, 20-22). Image exposure, camera gain and thresholding were uniformly set (i.e., equivalently for experimental and sham groups for each imaging metric (i.e., MDA, CGRP and c-fos). Resultant images were digitally stored as TIFF files for subsequent analyses that continued under blinded conditions where image integrated fluorescence intensity was registered using MetaMorph software for MDA and CGRP.
(§4) Images of MDA and CGRP were analyzed while blinded and later decoded to ratios of experimental/sham image integrated optical intensity, a sensitive metric that not only accounts for the area but also the pixel intensity of related image fluorescence. […]

Another series has as its system spreading depression. As to conditions: cited from earlier work.
The conditions of series [2]: within 30 minutes of N2B administration; cited from earlier work.
Series [3] has as its system trigeminal ganglion malondialdehyde. Kind of series: Malondialdehyde (oxidative stress) immunostaining of trigeminal ganglion after recurrent spreading depression. Format: in vivo, rat. As to the method: as §1, §2, §3, §4

Several values for one entry are separate records, joined by “and”; a condition that tells them apart may be missing. Equal values may be shown once.

Take “IGF-1: human recombinant IGF-1 (#191-G1; R&D Systems), 150 μg in 50 μL sodium succinate buffer, delivered nose-to-brain”: the “number of CSDs evoked” value in series [1] is recorded as 7±0.41. Also, the “log-ratio (IGF-1/sham) of CGRP immunostaining after recurrent CSD” value with trigeminal ganglion CGRP is given as −0.90±0.15. Besides, the “protection against SD over sham treatment” value in the series with spreading depression (SD from KCl, pretreatment) was around 27 fold. Moreover, the “spreading depression in whole animals” value in the series on spreading depression (nasal delivery) is listed as “significantly inhibited spreading depression in whole animals”. For the same substance, in series [2], the “levels in the trigeminal ganglion relative to levels in the olfactory bulb” value was around 10 fold. Moreover, the “reduction of malondialdehyde levels in the trigeminal ganglion after recurrent SD” value in series [3] (N2B IGF-1 150 μg a day before 90 minutes of recurrent SD, p<0.001) is 82% and 83%. In addition, in series [3] (n=5/group), the “natural logarithm ratio (IGF-1/sham) of MDA immunostaining after recurrent SD” value is −1.37±0.40.
